Experimental data from patent US20070185193A1, “Huvastatin and its preparation and formulation comprising the huvastatin” (HUAIBEI HUIKE PHARMACEUTICAL, CO. LTD., priority 2003, published 2007).

Legend:
physchem = settings: pH 7.4
rats = experiment: Animal test: blood lipid level and cholesterol in rats; assay type: in vivo; settings: twice per day, 0.05 or 0.1 mg/dose/rat, blood samples after one week
Description: Compound 1, 2 or 3 prepared in examples 1-3 were administered to rats (10 rats in each group), respectively, twice per day, 0.05 mg/dose/rat or 0.1 mg/dose/rat. Blood samples were taken and analyzed after one week for blood lipid level and cholesterol.

| logD (physchem) | Structure (SMILES) | blood lipid versus control group (rats) |
| --- | --- | --- |
| 0.82 | CCC(C)(C)C(=O)OC1CC(O)C=C2C=CC(C)C(CCC3CC(O)CC(=O)O3)C21 (stereo not drawn) [Compound 1, 2,2-Dimethylbutyricacid-3-hydroxy-8-[2-(4-hydroxy-6-oxo-tetrahydropyran-2-yl)-ethyl]-7-methyl-1,2,3,7,8,8a-hexahydronaphthalen-1-yl ester] | lower than that of the control group |
|  | CCC(C)(C)C(=O)OC1CC(O)C=C2C=CC(C)C(CCC3CC(CC(=O)O)OC(C)(C)O3)C21 (stereo not drawn) [Compound 3] | lower than that of the control group |
